Measurements: ChEMBL document CHEMBL1139392, “Synthesis and antibacterial activities of novel oxazolidinones having cyclic sulfonamide moieties” (2008)
In brackets after ≈: the same amount, converted by molar mass.

Key:
Format in all cases: functional
Enterococcus faecium [1] = assay: Antibacterial activity against vancomycin-resistant Enterococcus faecium 2 after 18 to 20 hrs by agar dilution method
Enterococcus faecium [2] = assay: Antibacterial activity against Enterococcus faecium C803 after 18 to 20 hrs by agar dilution method
Enterococcus [3] = assay: Antibacterial activity against vancomycin-resistant Enterococcus 3 after 18 to 20 hrs by agar dilution method
Enterococcus faecium [4] = assay: Antibacterial activity against vancomycin-resistant Enterococcus faecium 1 after 18 to 20 hrs by agar dilution method
Enterococcus [5] = assay: Antibacterial activity against vancomycin-resistant Enterococcus 2 after 18 to 20 hrs by agar dilution method
Staphylococcus aureus [6] = assay: Antibacterial activity against Staphylococcus aureus C463 after 18 to 20 hrs by agar dilution method
Enterococcus [7] = assay: Antibacterial activity against vancomycin-resistant Enterococcus 6 after 18 to 20 hrs by agar dilution method
Enterococcus [8] = assay: Antibacterial activity against vancomycin-resistant Enterococcus 5 after 18 to 20 hrs by agar dilution method
Enterococcus [9] = assay: Antibacterial activity against vancomycin-resistant Enterococcus 4 after 18 to 20 hrs by agar dilution method
Streptococcus agalactiae = assay: Antibacterial activity against Streptococcus agalactiae ATCC 2901 after 18 to 20 hrs by agar dilution method
Enterococcus faecalis = assay: Antibacterial activity against Enterococcus faecalis C474 after 18 to 20 hrs by agar dilution method
Streptococcus pneumoniae = assay: Antibacterial activity against Streptococcus pneumoniae C402 after 18 to 20 hrs by agar dilution method
Streptococcus pyogenes = assay: Antibacterial activity against Streptococcus pyogenes ATCC 8736 after 18 to 20 hrs by agar dilution method
Enterococcus [10] = assay: Antibacterial activity against vancomycin-resistant Enterococcus 1 after 18 to 20 hrs by agar dilution method
Staphylococcus = assay: Antibacterial activity against coagulase negative Staphylococcus after 18 to 20 hrs by agar dilution method
Haemophilus influenzae = assay: Antibacterial activity against Haemophilus influenzae after 18 to 20 hrs by agar dilution method
Staphylococcus aureus [11] = assay: Antibacterial activity against methicillin-resistant Staphylococcus aureus 1 after 18 to 20 hrs by agar dilution method

| SMILES | MIC (Enterococcus faecium [1]) [µg/mL] | MIC (Enterococcus faecium [2]) [µg/mL] | MIC (Enterococcus [3]) [µg/mL] | MIC (Enterococcus faecium [4]) [µg/mL] | MIC (Enterococcus [5]) [µg/mL] | MIC (Staphylococcus aureus [6]) [µg/mL] | MIC (Enterococcus [7]) [µg/mL] | MIC (Enterococcus [8]) [µg/mL] | MIC (Enterococcus [9]) [µg/mL] | MIC (Streptococcus agalactiae) [µg/mL] | MIC (Enterococcus faecalis) [µg/mL] | MIC (Streptococcus pneumoniae) [µg/mL] | MIC (Streptococcus pyogenes) [µg/mL] | MIC (Enterococcus [10]) [µg/mL] | MIC (Staphylococcus) [µg/mL] | MIC (Haemophilus influenzae) [µg/mL] | MIC (Staphylococcus aureus [11]) [µg/mL] |
| --- | --- | --- | --- | --- | --- | --- | --- | --- | --- | --- | --- | --- | --- | --- | --- | --- | --- |
| CC(=O)NC[C@H]1CN(c2ccc(N3CCCNS3(=O)=O)c(F)c2)C(=O)O1 | 1.56 (≈ 4.04 µM) | 1.56 (≈ 4.04 µM) | 0.78 (≈ 2.02 µM) | 3.12 (≈ 8.07 µM) | 1.56 (≈ 4.04 µM) | 3.12 (≈ 8.07 µM) | 3.12 (≈ 8.07 µM) | 3.12 (≈ 8.07 µM) | 3.12 (≈ 8.07 µM) | 1.56 (≈ 4.04 µM) | 1.56 (≈ 4.04 µM) | 0.78 (≈ 2.02 µM) | 1.56 (≈ 4.04 µM) | 3.12 (≈ 8.07 µM) | 1.56 (≈ 4.04 µM) | 1.56 (≈ 4.04 µM) | 1.56 (≈ 4.04 µM) |
| CC(=O)NC[C@H]1CN(c2ccc(N3CCN(C)S3(=O)=O)c(F)c2)C(=O)O1 | 3.12 (≈ 8.07 µM) | 3.12 (≈ 8.07 µM) | 3.12 (≈ 8.07 µM) | 3.12 (≈ 8.07 µM) | 6.25 (≈ 16.2 µM) | 3.12 (≈ 8.07 µM) | 3.12 (≈ 8.07 µM) | 3.12 (≈ 8.07 µM) | 3.12 (≈ 8.07 µM) | 1.56 (≈ 4.04 µM) | 3.12 (≈ 8.07 µM) | 0.78 (≈ 2.02 µM) | 1.56 (≈ 4.04 µM) | 6.25 (≈ 16.2 µM) | 6.25 (≈ 16.2 µM) | 3.12 (≈ 8.07 µM) | 3.12 (≈ 8.07 µM) |
| CC(=O)NC[C@H]1CN(c2ccc(N3CC(C)NS3(=O)=O)c(F)c2)C(=O)O1 (stereo not given in full) | 6.25 (≈ 16.2 µM) | 3.12 (≈ 8.07 µM) | 6.25 (≈ 16.2 µM) | 6.25 (≈ 16.2 µM) | 12.5 (≈ 32.3 µM) | 12.5 (≈ 32.3 µM) | 12.5 (≈ 32.3 µM) | 12.5 (≈ 32.3 µM) | 6.25 (≈ 16.2 µM) | 3.12 (≈ 8.07 µM) | 6.25 (≈ 16.2 µM) | 3.12 (≈ 8.07 µM) | 1.56 (≈ 4.04 µM) | 6.25 (≈ 16.2 µM) | 12.5 (≈ 32.3 µM) | 6.25 (≈ 16.2 µM) | 12.5 (≈ 32.3 µM) |
| CC(=O)NC[C@H]1CN(c2ccc(N3CCCN(C)S3(=O)=O)c(F)c2)C(=O)O1 | 1.56 (≈ 3.9 µM) | 1.56 (≈ 3.9 µM) | 1.56 (≈ 3.9 µM) | 0.78 (≈ 1.95 µM) | 1.56 (≈ 3.9 µM) | 1.56 (≈ 3.9 µM) | 1.56 (≈ 3.9 µM) | 1.56 (≈ 3.9 µM) | 1.56 (≈ 3.9 µM) | 1.56 (≈ 3.9 µM) | 1.56 (≈ 3.9 µM) | 0.78 (≈ 1.95 µM) | 0.78 (≈ 1.95 µM) | 1.56 (≈ 3.9 µM) | 1.56 (≈ 3.9 µM) | 1.56 (≈ 3.9 µM) | 1.56 (≈ 3.9 µM) |
| CC(=O)NC[C@H]1CN(c2ccc(N3CC(C)(C)NS3(=O)=O)c(F)c2)C(=O)O1 | 12.5 (≈ 31.2 µM) | 25 (≈ 62.4 µM) | 6.25 (≈ 15.6 µM) | 12.5 (≈ 31.2 µM) | 12.5 (≈ 31.2 µM) | 12.5 (≈ 31.2 µM) | 12.5 (≈ 31.2 µM) | 12.5 (≈ 31.2 µM) | 12.5 (≈ 31.2 µM) | 12.5 (≈ 31.2 µM) | 12.5 (≈ 31.2 µM) | 12.5 (≈ 31.2 µM) | 6.25 (≈ 15.6 µM) | 25 (≈ 62.4 µM) | 12.5 (≈ 31.2 µM) | 25 (≈ 62.4 µM) | 12.5 (≈ 31.2 µM) |
